Key:
Experiment in all cases: relative viability (nuclei count vs DMSO), 5 days (fraction); higher = more cells survive
AZ628 + Palbociclib = compound: CC1=C(C=C(C=C1)NC(=O)C2=CC(=CC=C2)C(C)(C)C#N)NC3=CC4=C(C=C3)N=CN(C4=O)C [AZ628] + CC(=O)c1c(C)c2cnc(Nc3ccc(N4CCNCC4)cn3)nc2n(C2CCCC2)c1=O [Palbociclib] (partner 0.5 µM)
Method in brief: (§1)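 Cells from lung cancer lines were seeded into 1536-well plates and, one day later, dosed by pin tool. Treatments were either a single drug or a fixed dose of an anchor drug with five library-drug doses (not always all listed) in √10 steps. After 5 days, nuclei were stained in a one-step fixation (final 0.05% Triton X-100, 1% formaldehyde, 1 ug/ml Hoechst) and counted on 4× images, and relative viability is the treated-to-vehicle nuclei ratio, as the median of duplicate plates.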

Darinaparsin + Lapatinib = compound: C[As](C)SC[C@H](NC(=O)CC[C@H](N)C(=O)O)C(=O)NCC(=O)O [Darinaparsin] + CS(=O)(=O)CCNCc1ccc(-c2ccc3ncnc(Nc4ccc(OCc5cccc(F)c5)c(Cl)c4)c3c2)o1 [Lapatinib] (partner 2 µM)
Method in brief: as §1

[1] = compound: C[As](C)SC[C@H](NC(=O)CC[C@H](N)C(=O)O)C(=O)NCC(=O)O [Darinaparsin] + C[C@@H](Oc1cc(-c2cnn(C3CCNCC3)c2)cnc1N)c1c(Cl)ccc(F)c1Cl [Crizotinib] (partner 1 µM)
Method in brief: as §1

[2] = compound: C[As](C)SC[C@H](NC(=O)CC[C@H](N)C(=O)O)C(=O)NCC(=O)O [Darinaparsin] + Nc1nc2[nH]cc(CCc3ccc(C(=O)N[C@@H](CCC(=O)O)C(=O)O)cc3)c2c(=O)[nH]1 [Pemetrexed] (partner 0.2 µM)
Method in brief: as §1

Cell Line: LCLC-97TM1
- relative viability (AZ628 + Palbociclib; first compound 0.08 µM): 0.231
- relative viability (AZ628 + Palbociclib; first compound 0.253 µM): 0.217
- relative viability (AZ628 + Palbociclib; first compound 0.8 µM): 0.193
- relative viability (AZ628 + Palbociclib; first compound 2.53 µM): 0.182
- relative viability (AZ628 + Palbociclib; first compound 8 µM): 0.113
- relative viability (Darinaparsin + Lapatinib; first compound 0.08 µM): 0.782
- relative viability (Darinaparsin + Lapatinib; first compound 0.8 µM): 0.579
- relative viability (Darinaparsin + Lapatinib; first compound 2.53 µM): 0.803
- relative viability (Darinaparsin + Lapatinib; first compound 8 µM): 0.867
- relative viability ([1]; first compound 0.08 µM): 0.517
- relative viability ([1]; first compound 0.8 µM): 0.354
- relative viability ([1]; first compound 2.53 µM): 0.271
- relative viability ([1]; first compound 8 µM): 0.372
- relative viability ([2]; first compound 0.08 µM): 0.162
- relative viability ([2]; first compound 0.8 µM): 0.177
- relative viability ([2]; first compound 2.53 µM): 0.166
- relative viability ([2]; first compound 8 µM): 0.185

— the supplement of paper PMC10307832
